How the values were obtained:
[1] = system: SKOV3 xenograft tumors; assay: SKOV3 subcutaneous xenograft with Cisplatin; format: in vivo, BALB/c nude mice; conditions: Lv-shTRDMT1 infected SKOV3 xenografts, Cisplatin 5 mg/kg intratumoral twice per week for 3 weeks
Procedure: FIGS. 5A-5E show reduced TRDMT1 expression renders Cisplatin sensitization in vivo. (FIG. 5A) Lv-shTRDMT1 or Lv-NC transfected SKOV3 cells were subcutaneously injected into BALB/c nude mice, a week after injection, Cisplatin (5 mg/kg) or saline was injected into the center of the xenograft tumors twice per week for 3 consecutive weeks. (FIG. 5B) Representative images of tumors in xenografts transfected with LV-shTRDMT1/LV-NC with saline or Cisplatin treatment. (FIG. 5C) Tumor size of SKOV3 subcutaneous xenograft tumors (n=6, Mean±SD). (FIG. 5D) WB for TRDMT1 in tumor tissues collected from mice in each group (Tissues from six tumors in the same group were mixed into one sample). (FIG. 5E) IHC of TRDMT1 and KI-67 expression in ovarian cancer tissues of patients who were platinum-sensitive (PFS>6) and −resistant (PFS<6) Staining was assessed and scored on a scale of 0 (<5% staining) to 4 (>75% staining) in G. Quantification of IHC staining (n=38, PFS>6, n=24; PFS<6, n=14) was shown.
SKOV3 cells (1.0×10^6) were transfected with LV-TRDMT1-RNAi (gcAGAAGA AATTCACAGGAAA, SEQ ID NO: 15) or LV-NC-RNAi and injected […] into female nude mice which were then randomly divided into 4 groups (6 animals per condition). […] PFS was calculated from the time of surgery to the time of progression or recurrence. […]

[2] = system: cancer cell lines (HST578, MBAMD231, HCC1937, HCC1954); assay: Cell survival (colony) assay with TRDMT1i alone, Example 19; format: cell-based; conditions: HCC1954 (HRD, high SYCP2)
Procedure: FIGS. 14A-14C show TRDMT1i alone reduce cancer cell survival in a dose-dependent manner. (FIG. 14A) Survival rate of HR proficient (HR+) HST578 cancer cells with and without siBRCA1 and/or TRDMT1i YW-1842 at indicated dose. The survival rate of these cells was analyzed (n=3, Mean±SD). (FIG. 14B) Survival rate of MBAMD231 (HR+) and HCC1937 (HRD) cells. The survival rate of these cells was analyzed (n=3, Mean±SD). (FIG. 14C) Cell survival rate in different cancer cell lines via colony-forming assay with the treatment of Imatinib at indicated dose (n=3, mean+/−S.D.). Cell lines are listed in order with the expression level from SYCP2high to SYCP2low.
HCC1500, HCC1954, BT549, MCF7 and MDAMB468 were cultured in Roswell Park Memorial Institute (RPMI) 1640 Medium (Sigma, R8758) with 10% (vol/vol) fetal bovine serum (FBS, XY Cell Culture, FBS-500) at 37° C., 5% CO2. siBRCA1 (L-003461-00, Dharmacon) was transfected with Lipofectamine RNAiMax (Invitrogen; Carlsbad, CA, USA). PARPi Olaparib (AZD2281/Ku-0059436, Sellekchem, S1060) and Pol theta inhibitor Novobiocin (Sigma) were used.
Cells were seeded in each 6-cm dish and cultured as described above. They were treated with drugs with indicated dose in medium after seeding. After 7-10 days, colonies were fixed and stained with 0.3% crystal violet in methanol, and the number of colonies was counted manually.

[3] = system: MD-MBA-231 xenograft tumors; assay: MDA-MB-231 xenograft with PARPi; format: in vivo, BALB/c nude mice; conditions: injection every 2 days after day 7, 23 days
Procedure: FIGS. 9A-9G show SYCP2 is required for efficient homologous recombination. (FIG. 9A) Cell survival rate of HeLa and MDAMB231 via colony forming assay with the treatment of 2 μM, 4 μm, 6 μM, 8 μM, 16 μM of Olaparib (n=3, mean+/−S.D.). Western blot of SYCP2 overexpression in HeLa and MDA-MB-231 is shown in the left. (FIG. 9B) Cell survival rate of HeLa via colony forming assay with the treatment of 1 μM, 2 μm, 3 μM of Olaparib (n=3, mean+/−S.D.). Western blot of SYCP2 knockdown in Hela is shown in the left. (FIG. 9C) Scheme of Xenograft design using intraperitoneal injection of MBA-MD-231 into successful developed mouse model with virus-associated SYCP2 knockdown and control groups is shown in the left. PARPi was injected every 2 days after day 7. The graph is shown the recorded tumor size of each tested group with PARPi treatment or saline at each treatment day. (FIG. 9D). Numbers of SYCP2 IR induced foci (IRIF) colocalizing with γH2AX in MDAMB231 and HeLa cells. Cells were fixed and counted for foci numbers after 2 Gy IR followed up indicated recovery time (t=0 hr, 12 hr, 24 hr, and 48 hr) (n=30, mean+/−S.D). (FIG. 9E). […] Fold increase of mean intensity at sites of irradiation compared to mean intensity of nucleus expression is quantified (n=5, mean+/−SD). […] Numbers of RAD51 IRIF in siCtrl and siSYCP2 treated MDAMB231 and U2OS cells after 2 Gy IR and 1 hour recovery were counted (n=20, +/−SD). […]

Compound | xenograft tumor size [1] | sensitivity of HCC1954 to PARPi [2] | tumor growth reduction by PARPi, SYCP2 knockdown versus control tumors ([3]; LV-siSYCP2 tumors) | tumor growth, control tumors ([3]; siControl tumors)
N.N.[Cl][Pt][Cl] [cisplatin] | grew statistically smaller | – | – | –
O=C(c1cc(Cc2n[nH]c(=O)c3ccccc23)ccc1F)N1CCN(C(=O)C2CC2)CC1 [olaparib] | – | relatively resistant | more than control tumors | reduced the growth of control tumors

Reference: patent US12496302B2, “Compositions and methods for the treatment and diagnosis of cancer” (The General Hospital Corporation, priority 2020, dated 2025)
